Broadly, the half-life is the time needed for the level to fall by half in the phase considered. A lower half-life goes with fast loss.

One data set concerns the target T1, leucine aminopeptidase (Sus scrofa, UniProt P28839).
T1 construct: purchased Sigma, UK type III-CP (catalogue number not given); host or cells: porcine kidney
T1 sequence (P28839 1-519): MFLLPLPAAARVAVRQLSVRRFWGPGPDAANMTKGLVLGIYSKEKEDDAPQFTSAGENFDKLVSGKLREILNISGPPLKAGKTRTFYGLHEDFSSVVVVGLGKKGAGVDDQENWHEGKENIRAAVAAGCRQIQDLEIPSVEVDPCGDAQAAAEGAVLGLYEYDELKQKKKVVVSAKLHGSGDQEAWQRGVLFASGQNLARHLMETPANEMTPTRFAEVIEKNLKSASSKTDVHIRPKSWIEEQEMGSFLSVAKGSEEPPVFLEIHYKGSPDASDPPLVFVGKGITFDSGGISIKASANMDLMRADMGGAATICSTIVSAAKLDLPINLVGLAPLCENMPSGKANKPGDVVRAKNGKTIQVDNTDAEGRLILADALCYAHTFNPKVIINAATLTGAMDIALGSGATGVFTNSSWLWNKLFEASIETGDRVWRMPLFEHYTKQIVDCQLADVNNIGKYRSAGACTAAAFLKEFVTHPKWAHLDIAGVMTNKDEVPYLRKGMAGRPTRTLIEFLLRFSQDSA
Kind of data set: Hydrolysis kinetics in leucine aminopeptidase solution. To be noted: 50 mM phosphate buffer pH 7.4, 37° C., leucine aminopeptidase 25 U/ml; for half-life: pig. Format: in vitro ADME, porcine. As to the method:
(§1) Carboxypeptidase A (EC 3.4.17.1) type I from bovine pancreas, leucine aminopeptidase (EC 3.4.11.1) type III-CP from porcine kidney, α-chymotrypsin (EC […]) from bovine pancreas, and pepsin A (EC 3.4.23.1) from porcine stomach mucosa […] were obtained from Sigma, UK.
(§2) Gradient HPLC analysis of samples from in vitro kinetic measurements performed as described below was performed using a Hewlett Packard HP 1100 HPLC system consisting of a HP 1100 Binary Pump, a HPI 100 Autosampler, a HPI 100 Column Thermostat and a HP 1100 Variable Wavelength Detector. A Merck LiChroCART column (125×4 mm I.D.) and a LiChroCART precolumn (4×4 mm I.D.) packed with Lichrospher RP-18 (5 .μum particles) was used. The column was kept at 25° C. or 75° C. and the column effluent was measured by UV detection at 215 run. Separation of the peptide conjugates or the native peptides from degradation products and constituents of the reaction solutions was accomplished using gradient elution of the column with mixtures of mobile phase A (0.1 vol % TFA in water) and mobile phase B (0.085 vol % TFA in acetonitrile) at a flow rate of 1 ml/min.
(§3) The degradation of the peptide conjugate and the corresponding native peptide were studied at 37° C. in a 50 mM phosphate buffer solution at pH 7.4 containing leucine arninopeptidase (25 U/ml) or carboxypeptidase A (1 or 25 U/ml). Experiments were initiated by addition of an aliquot (100 μl) of a stock solution (1 mg/ml) of the peptide conjugate or the native peptide to 900 μl preheated enzyme solution giving a final concentration of ˜0.1 mg/ml (10^−5-10^−4M) of the peptide conjugate or the native peptide. The peptide/enzyme solution was kept at 37° C. using a SHT200D block heater from Stuart Scientific. At appropriate time intervals, samples of 100 μl were withdrawn from the peptide/enzyme solution, mixed thoroughly with 20 μl 25% TFA in acetonitrile in order to stop the enzymatic degradation process and analysed by HPLC as described above. Half-lives (t1/2) for the peptide conjugate and the corresponding native peptide in the enzyme solutions were calculated from plots of the natural logarithm to the concentration of the residual peptide (HPLC peak heights) against time using the formula t/2=1/kobs×ln(2), where kobs is the apparent first-order rate constant for the observed degradation.

For another data set, the system named is osteoblast. In words: Osteoblast retraction assay. Format: cell-based, mice. To be noted: for Retraction assay % Retracted cells: 10 nM, 1 h, mouse calvaria osteoblasts; for activity relative to the mother compound hPTH(1-34): Osteoblast retraction assay. On the procedure:
Retraction assays were performed with osteoblast prepared from calvaria of 1-day old mice according to published protocols (Miller et al., 1976, Science 192:1340-1343). In brief, osteoblasts were seeded in serum-free minimal essential medium-α (αMEM) at a density of 3000 cells per cm^2 into 96-well tissue culture plates coated with 50 μg/ml of type I collagen in phosphate-buffered saline containing 0.1% bovine serum albumin (PBS). One day after plating, PTH compounds were added to a final concentration of 10 nM and incubation was carried out for 1 h. Cells were then fixed and stained with toluidine blue, and the number of retracted cells was counted by visual inspection.

The next data set deals with T2, carboxypeptidase A (Bos taurus, UniProt P00730).
T2 construct: purchased Sigma, UK type I (catalogue number not given); host or cells: bovine pancreas
T2 sequence (P00730 111-419): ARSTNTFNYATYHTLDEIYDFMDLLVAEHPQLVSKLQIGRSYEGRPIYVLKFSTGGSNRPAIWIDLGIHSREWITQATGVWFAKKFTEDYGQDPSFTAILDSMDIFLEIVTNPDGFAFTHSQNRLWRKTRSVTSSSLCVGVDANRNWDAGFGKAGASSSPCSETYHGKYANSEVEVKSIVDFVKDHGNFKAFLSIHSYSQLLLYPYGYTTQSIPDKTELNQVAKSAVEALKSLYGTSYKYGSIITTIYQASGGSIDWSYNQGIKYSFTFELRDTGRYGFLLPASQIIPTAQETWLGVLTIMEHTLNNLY
Kind of data set: Hydrolysis kinetics in carboxypeptidase A solution. The settings on record: 50 mM phosphate buffer pH 7.4, 37° C., carboxypeptidase A 1 U/ml. Format: in vitro ADME, bovine. On the procedure: as §1, §2, §3

A further data set relates to PTH (1-34)-antibody. The settings on record: EIAS(h)-6101 from Peninsula Laboratories; cited from earlier work.

For `CC[C@H](C)[C@H](NC(=O)[C@H](CCC(=O)O)NC(=O)[C@H](CO)NC(=O)[C@@H](NC(=O)[C@H](CO)NC(=O)[C@H](CCCCN)NC(=O)[C@H](CCCCN)NC(=O)[C@H](CCCCN)NC(=O)[C@H](CCCCN)NC(=O)[C@H](CCCCN)NC(=O)[C@@H](N)CCCCN)C(C)C)C(=O)N[C@@H](CCC(N)=O)C(=O)N[C@@H](CC(C)C)C(=O)N[C@@H](CCSC)C(=O)N[C@@H](Cc1c[nH]cn1)C(=O)N[C@@H](CC(N)=O)C(=O)N[C@@H](CC(C)C)C(=O)NCC(=O)N[C@@H](CCCCN)C(=O)N[C@@H](Cc1c[nH]cn1)C(=O)N[C@@H](CC(C)C)C(=O)N[C@@H](CC(N)=O)C(=O)N[C@@H](CO)C(=O)N[C@@H](CCSC)C(=O)N[C@@H](CCC(=O)O)C(=O)N[C@@H](CCCNC(=N)N)C(=O)N[C@H](C(=O)N[C@@H](CCC(=O)O)C(=O)N[C@@H](Cc1c[nH]c2ccccc12)C(=O)N[C@@H](CC(C)C)C(=O)N[C@@H](CCCNC(=N)N)C(=O)N[C@@H](CCCCN)C(=O)N[C@@H](CCCCN)C(=O)N[C@@H](CC(C)C)C(=O)N[C@@H](CCC(N)=O)C(=O)N[C@@H](CC(=O)O)C(=O)N[C@H](C(=O)N[C@@H](Cc1c[nH]cn1)C(=O)N[C@@H](CC(N)=O)C(=O)N[C@@H](Cc1ccccc1)C(=O)O)C(C)C)C(C)C` [(Lys)6-PTH(1-34)(Human)-OH, H-(Lys)6-(-Ser-Val-Ser-Glu-Ile-Gln-Leu-Met-His-Asn-Leu -Gly-Lys-His-Leu-Asn-Ser-Met-Glu-Arg-Val-Glu-Trp-Leu-Arg-Lys-Lys-Leu-Gln -Asp-Val-His-Asn-Phe-OH], on leucine aminopeptidase, the “pseudo first-order rate constant for the degradation” value (shortened to “pseudo first-order rate constant”) came out at 0.0035 min⁻¹ and the half-life was determined as 3.3 h. In the data set with osteoblast, the “Retraction assay % Retracted cells” value stood at 34.7% and the “activity relative to the mother compound hPTH(1-34)” value is 49%.
With `CC[C@H](C)[C@H](NC(=O)[C@H](CCC(=O)O)NC(=O)[C@H](CO)NC(=O)[C@@H](NC(=O)[C@@H](N)CO)C(C)C)C(=O)N[C@@H](CCC(N)=O)C(=O)N[C@@H](CC(C)C)C(=O)N[C@@H](CCSC)C(=O)N[C@@H](Cc1c[nH]cn1)C(=O)N[C@@H](CC(N)=O)C(=O)N[C@@H](CC(C)C)C(=O)NCC(=O)N[C@@H](CCCCN)C(=O)N[C@@H](Cc1c[nH]cn1)C(=O)N[C@@H](CC(C)C)C(=O)N[C@@H](CC(N)=O)C(=O)N[C@@H](CO)C(=O)N[C@@H](CCSC)C(=O)N[C@@H](CCC(=O)O)C(=O)N[C@@H](CCCNC(=N)N)C(=O)N[C@H](C(=O)N[C@@H](CCC(=O)O)C(=O)N[C@@H](Cc1c[nH]c2ccccc12)C(=O)N[C@@H](CC(C)C)C(=O)N[C@@H](CCCNC(=N)N)C(=O)N[C@@H](CCCCN)C(=O)N[C@@H](CCCCN)C(=O)N[C@@H](CC(C)C)C(=O)N[C@@H](CCC(N)=O)C(=O)N[C@@H](CC(=O)O)C(=O)N[C@H](C(=O)N[C@@H](Cc1c[nH]cn1)C(=O)N[C@@H](CC(N)=O)C(=O)N[C@@H](Cc1ccccc1)C(=O)N[C@@H](CCCCN)C(=O)N[C@@H](CCCCN)C(=O)N[C@@H](CCCCN)C(=O)N[C@@H](CCCCN)C(=O)N[C@@H](CCCCN)C(=O)N[C@@H](CCCCN)C(=O)O)C(C)C)C(C)C` [PTH(1-34)(Human)-(Lys)6-OH, H-Ser-Val-Ser-Glu-Ile-Gln-Leu-Met-His-Asn-Leu-Gly-Lys -His-Leu-Asn-Ser-Met-Glu-Arg-Val-Glu-Trp-Leu-Arg-Lys-Lys-Leu-Gln-Asp-Val -His-Asn-Phe-Lys6-OH], at leucine aminopeptidase, the “pseudo first-order rate constant” value stood at 0.0012 min⁻¹ and the half-life stood at 9.63 h. In addition, on carboxypeptidase A, the half-life came to 0.783 h and the “pseudo first-order rate constant” value was 0.015 min⁻¹. Also, in the data set on osteoblast, the “Retraction assay % Retracted cells” value came to 37.4% and the “activity relative to the mother compound hPTH(1-34)” value is listed as 55%.
Consider “hPTH(1-38): human PTH fragment listed in the EIA kit specificity (SVSEIQLMHNLGKHLNSMERVEWLRKKLQDVHNFVALG; Parathyroid hormone; UniProt P01270 32-69, looked up, fragment)”, for which the “Specificity of the assay” value in the data set on PTH (1-34)-antibody was 100%.
Take “hPTH(1-44): human PTH fragment listed in the EIA kit specificity (SVSEIQLMHNLGKHLNSMERVEWLRKKLQDVHNFVALGAPLAPR; Parathyroid hormone; UniProt P01270 32-75, looked up, fragment)”: the “Specificity of the assay” value in the data set with PTH (1-34)-antibody is 0%.
“hPTH(39-68): human PTH fragment listed in the EIA kit specificity (APLAPRDAGSQRPRKKEDNVLVESHEKSLG; Parathyroid hormone; UniProt P01270 70-99, looked up, fragment)”: the “Specificity of the assay” value in the data set on PTH (1-34)-antibody was 0%.
Consider “ratPTH(1-34): rat PTH fragment listed in the EIA kit specificity (AVSEIQLMHNLGKHLASVERMQWLRKKLQDVHNF; Parathyroid hormone; UniProt P04089 32-65, looked up, fragment)”, for which the “Specificity of the assay” value in the data set on PTH (1-34)-antibody was 0%.

B1: Parathyroid Hormone: native, human parathyroid hormone (protein, UniProt P01270 32-115, looked up)
Parathyroid hormone: SVSEIQLMHNLGKHLNSMERVEWLRKKLQDVHNFVALGAPLAPRDAGSQRPRKKEDNVLVESHEKSLGEADKADVNVLTKAKSQ
modifications: Parathyroid hormone
Regarding B1, the “Retraction assay % Retracted cells” value was 63.7% with osteoblast and about 64% in the data set with osteoblast (listed as PTH).

B2: hPTH(1-84): full-length human PTH listed in the EIA kit specificity (protein, UniProt P01270 32-115, looked up)
Parathyroid hormone: B1 Parathyroid hormone
modifications: Parathyroid hormone
B2: in the data set with PTH (1-34)-antibody, the “Specificity of the assay” value was 0%.

These data come from US7414107B2, “Pharmacologically active peptide conjugates having a reduced tendency towards enzymatic hydrolysis” (priority 1998, dated 2008).
